The values that follow come from patent US20240082242A1, “COMBINATION THERAPIES” (IMBRIA PHARMACEUTICALS, INC., priority 2021, published 2024).

Test [1] concerns TAC-induced heart failure in mice. Briefly: Transverse aortic constriction (TAC) model of heart failure. Type of test: in vivo, mouse. The conditions noted are these: for fibrosis of myocardial tissue after six weeks: Masson's trichome, percentage of fibrotic heart tissue, control 10.7±1; for left ventricular ejection fraction (EF) throughout the six-week study: third study, minipump. Here is the method:
Studies were conducted to evaluate and compare the efficacy of the reference compound TMZ with CV-8814 and CV-1018972 on ventricular remodeling, preservation of heart function and prevention of fibrosis in a transverse aortic constriction (TAC) model of heart failure in mice.
FIG. 30 is a schematic of the transverse aortic constriction (TAC) protocol used to test the ability of various compounds to protect the heart against heart failure. The aortic arc was exposed via midline incision in the chest cavity of anesthetized mice. A 27-gauge needle was tied against the transverse aorta and then promptly removed to create a ligature constriction. In vivo cardiac function was assessed by transthoracic echocardiography performed at 24-hour, 3-week, and 6-week time-points after TAC. Ventricular remodeling was determined by evaluation of heart weights (HW) and heart weight to body weight ratios (HW/BW). At study termination, hearts were excised, fixed, sectioned at 6 μm and stained with Masson's trichome. The area of fibrosis in myocardial tissue was measured by computerized planimetry on five random fields per heart. A total of 65 to 75 fields were analyzed per treatment group and differences were analyzed by Student's t-test.
Three separate studies were performed to evaluate the efficacy of single agents and combinations with metabolic enhancers in the TAC model of heart failure. In the first study, mice were treated with either trimetazidine alone or trimetazidine+nicotinamide+succinate. In the second study, mice were treated with CV-8814 alone or trimetazidine+nicotinic acid+succinate. In the third study, mice were treated with […], CV-8814, or CV-8972. Overall, the activities of trimetazidine, CV-8814, and CV-8972 on most study endpoints were in good agreement across the three studies. In the third study, the three compounds were analyzed at equivalent mg/kg/day doses on a formula weight basis: 6 mg/kg/d for trimetazidine, 7.5 mg/kg/day for CV-8814; and 10 mg/kg/day for CV-8972. Therefore, the results from the third study are summarized here.

The subject of test [2] is explanted mouse hearts. Briefly: Langendorff ischemia-reperfusion protocol. The conditions noted are these: for infarct size: 20 μM (each) perfusion, triphenyltetrazolium staining, control 68%; for reduction of myocardial infarct size: 20 μM, vs control. As for the experimental part: Studies were conducted to evaluate the effect of CV-8814, a pFOX inhibitor, on protecting heart tissue from ischemia/reperfusion (I/R) injury. Similar studies were performed with trimetazidine (TMZ) as a representative pFOX reference compound. Studies were performed with TMZ alone and TMZ in combination with the metabolic enhancers (e.g., nicotinic acid) for a comparison of single agent and combination agent pharmacologic potencies. FIG. 25 is a schematic of the Langendorff Ischemia-Reperfusion protocol used to test the ability of various compounds to protect the heart from ischemic injury. Test compounds were dissolved at 20 μM in Krebs-Henseleit buffer and perfused through the tissue of mouse hearts at a constant pressure starting at time 0. For each treatment group, 10-18 hearts were tested. A Mikro-tip catheter was inserted into left ventricles to measure cardiac functions, including heart rate, coronary flow, left ventricular systolic and end-diastolic pressure, at the end of the baseline perfusion at 20 minutes. […] At the end of perfusion, hearts were cross-sectioned into five slices, and infarct size was measured by computerized planimetry of triphenyltetrazolium stained heart tissue sections. The concept of combining a pFOX inhibitor with metabolic enhancers (e.g. nicotinamide, nicotinic acid, and succinate) was evaluated in combination Langendorff I/R studies. The combinations included TMZ/nicotinamide/succinate (all at a concentration of 20 μM; coded TNS) and TMZ/nicotinic acid/succinate (all at a concentration of 20 μM; coded TNC).

The mark [3] stands for this setting: 20 μM perfusion, initial single agent study.

On to `O=C(O)c1cccnc1` [Nicotinic acid, nicotinic acid, reference compound], for which, in test [1], the “fibrosis of myocardial tissue after six weeks” value (from here on “fibrosis of myocardial tissue”) is on record as 8.2±1% and the “left ventricular ejection fraction (EF) throughout the six-week study” value (from here on “left ventricular ejection fraction”) is listed as “neither TMZ nor nicotinic acid had a beneficial effect”.

Turning to `COc1ccc(CN2CCNCC2)c(OC)c1OC` [TMZ, trimetazidine], in test [1], the “fibrosis of myocardial tissue” value came to 7.6±1% and the “left ventricular ejection fraction” value is recorded as “neither TMZ nor nicotinic acid had a beneficial effect”. Besides, in test [1] (TMZ 6 mg/kg/d), the “diastolic function during TAC-induced heart failure” value is reported as “did not preserve diastolic function” and the “effect on FS” value was “did not have a significant effect”. In addition, in test [2], the infarct size was found to be 56±3% and the “reduction of myocardial infarct size” value is given as ~9%. Further, the LVDP in test [2] (20 μM TMZ alone, separate study, printed as TMZ vs. control) is recorded as 49±5 mm Hg. In addition, in test [2] (20 μM each, combination study), the “LVDP at T20” value was determined as 56±6 mm Hg and the “LVDP at T170” value is given as 49±5 mm Hg.

As for `COc1ccc(CN2CCN(CCO)CC2)c(OC)c1OC` [CV-8814, 2-[4-[(2,3,4-trimethoxyphenyl)methyl]piperazin-1-yl]ethanol], in test [1] (CV-8972 10, CV-8814 7.5 mg/kg/day, control 34%±3%), the “left ventricular fractional shortening (FS) at Week 6” value is reported as 44%±3%. In test [1], the “fibrosis of myocardial tissue” value stood at 6.6±0.6% and the “left ventricular ejection fraction” value is listed as “preserved”. The “isovolumic relaxation time (IVRT) at Week 6” value in test [1] (control 35±1) is 28 ± 2 ms. For the same compound, the “isovolumic relaxation time (IVRT) at the three-week assessment” value in test [1] (control 36±1) worked out at 33 ± 1 ms. In addition, in test [2], the infarct size amounted to 52±4% and the “reduction of myocardial infarct size” value was ~16%. For the same compound, in test [2] (setting [3]), the “left ventricular developed pressure (LVDP) at 20 min” value worked out at 48±8 mmHg and the “left ventricular developed pressure (LVDP) at 170 min” value is listed as 63±5 mm Hg. In test [2] (20 μM perfusion, initial single agent study, control 54±6), the “coronary flow at the end of the reperfusion period” value is reported as 90±14 μl/mL.
